Experiments:
[1] = test system: Puccinia recondita f. sp. tritici (the causal agent of wheat leaf rust); test: Test C: preventive spray on wheat seedlings, wheat leaf rust, visual disease rating; type: in vivo; conditions: wheat seedlings; for pest or weed control at 10 µg/mL: Puccinia recondita, 168 h, read-out: Test C disease control rating
Procedure, shortened: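 Wheat seedlings sprayed to run-off with compound in acetone/water (50/50) with 250 ppm PEG400, then inoculated with spores the following day. After 24 h saturated humidity at 20° C. and 6 days in growth chamber at 20° C., disease rated visually as % control relative to untreated controls.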

[2] = test system: Phakopsora pachyrhizi (the causal agent of Asian soybean rust); test: Test A: preventive spray on soybean seedlings, Asian soybean rust, visual disease rating; type: in vivo; conditions: soybean seedlings; for pest or weed control at 10 µg/mL: Phakopsora pachyrhizi, 216 h, read-out: Test A disease control rating
Procedure, shortened: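 Compound in acetone/water (50/50) with 250 ppm PEG400 sprayed to run-off on soybean seedlings; inoculated next day with Phakopsora pachyrhizi spores. Held 24 h at 22° C in saturated atmosphere, then 8 days in a 22° C growth chamber before visual rating as % disease control relative to controls.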

[3] = test suspension 10 ppm, 100 = 100% disease control, 0 = no control
[4] = 10 ppm test suspension, 100 = 100% disease control, 0 = no control
[5] = 50 ppm test suspension, 100 = 100% disease control, 0 = no control

| SMILES | Test C disease control rating ([1]; test suspension 10 ppm) [%] | Test A disease control rating [2, 3] [%] | also measured |
| --- | --- | --- | --- |
| O=c1ccc2ccccc2n1Cc1ccc(-c2noc(C(F)(F)F)n2)cc1 [compound 157] | 100 | 100 |  |
| Cc1cccc2cnn(Cc3ccc(-c4noc(C(F)(F)F)n4)cc3)c12 [compound 101] |  |  | Test C disease control rating ([1]; test suspension 50 ppm): 100%; Test A disease control rating ([2]; test suspension 50 ppm): 100% |
| CNC(=O)c1nn(Cc2ccc(-c3noc(C(F)(F)F)n3)cc2)c2ccccc12 [compound 45] | 99 | 100 |  |
| C#CCON=Cc1cnn(Cc2ccc(-c3noc(C(F)(F)F)n3)cc2)c1 [compound 387] |  |  | Test C disease control rating [1, 4]: 99%; Test A disease control rating [2, 4]: 100% |
| Cc1cc(C(=O)OC(=O)C(F)(F)F)nn1Cc1ccc(-c2noc(C(F)(F)F)n2)cc1 [compound 180] | 0 | 97 |  |
| CCNC(=O)C1=NOC(Cc2ccc(-c3noc(C(F)(F)F)n3)s2)C1 (centres unmarked) [compound 369] |  |  | Test C disease control rating ([1]; test suspension 50 ppm): 100%; Test A disease control rating ([2]; test suspension 50 ppm): 100% |
| COC(=O)c1cnn(CCc2ccc(-c3noc(C(F)(F)F)n3)cc2)c1 [compound 436] |  |  | Test C disease control rating [1, 4]: 74%; Test A disease control rating [2, 4]: 100% |
| CN(C)C(=O)C1=NOC(Cc2ccc(-c3noc(C(F)(F)F)n3)s2)C1 (centres unmarked) [compound 460] |  |  | Test C disease control rating [1, 5]: 99%; Test A disease control rating [2, 5]: 100% |
| CS(=O)(=O)CCOC(=O)c1cnn(Cc2ccc(-c3noc(C(F)(F)F)n3)cc2)c1 [compound 390] |  |  | Test C disease control rating [1, 4]: 100%; Test A disease control rating [2, 4]: 100% |
| N#Cc1cccc2nn(Cc3ccc(-c4noc(C(F)(F)F)n4)cc3)cc12 [compound 107] | 90 | 100 |  |
| C=CC(F)(F)OC(=O)c1cnn(Cc2ccc(-c3noc(C(F)(F)F)n3)cc2)c1 [compound 168] | 100 | 100 |  |
| O=C(O)c1cnn(Cc2ccc(-c3noc(C(F)(F)F)n3)cc2)c1 [compound 55] | 99 | 100 |  |
| N#CC(C#N)NC(=O)c1coc(Cc2ccc(-c3noc(C(F)(F)F)n3)cc2)n1 [compound 203] | 86 | 100 |  |
| CSc1nn(Cc2ccc(-c3noc(C(F)(F)F)n3)cc2)nc1C [compound 31] | 100 | 100 |  |
| FC(F)(F)c1nc(-c2ccc(Cn3nc(Br)c4ccccc43)cc2)no1 [compound 112] | 0 | 92 |  |
| COCCNC(=O)c1cc(C)n(Cc2ccc(-c3noc(C(F)(F)F)n3)cc2)n1 [Compound 183, N-(2-methoxyethyl)-5-methyl-1-[[4-[5-(trifluoromethyl)-1,2,4-oxadiazol-3-yl]phenyl]methyl]-1H-pyrazole-3-carboxamide] |  |  | pest or weed control at 10 µg/mL ([1]; test suspension 10 ppm): 100%; pest or weed control at 10 µg/mL [2, 3]: 100% |
| CCNC(=O)c1cnn(Cc2ccc(-c3noc(C(F)(F)F)n3)cc2)c1 [compound 67] | 99 | 100 |  |
| O=C(NC1CC1)c1cnn(Cc2ccc(-c3noc(C(F)(F)F)n3)cc2)c1 [compound 69] | 100 | 100 |  |
| CCOC(=O)CNC(=O)c1cnn(Cc2ccc(-c3noc(C(F)(F)F)n3)cc2)c1 [compound 378] | 98 | 100 |  |
| CCOC(=O)C1=NOC(Cc2ccc(-c3noc(C(F)(F)F)n3)s2)C1 (centres unmarked) [compound 366] |  |  | Test C disease control rating ([1]; test suspension 50 ppm): 100%; Test A disease control rating ([2]; test suspension 50 ppm): 100% |
| FC(F)(F)c1nc(-c2ccc(Cn3ccc4cnccc43)cc2)no1 [compound 137] | 41 | 100 |  |
| CC(C)ONC(=O)c1cnn(Cc2ccc(-c3noc(C(F)(F)F)n3)cc2)c1 [compound 270] | 100 | 100 |  |
| FC(F)(F)c1nc(-c2ccc(Cn3ncc4cccnc43)cc2)no1 [Compound 147, 1-[[4-[5-(trifluoromethyl)-1,2,4-oxadiazol-3-yl]phenyl]methyl]-1H-pyrazolo[3,4-b]pyridine] |  |  | pest or weed control at 10 µg/mL ([1]; test suspension 10 ppm): 100%; pest or weed control at 10 µg/mL [2, 3]: 100% |
| O=C(Nc1ccccc1)c1cnn(Cc2ccc(-c3noc(C(F)(F)F)n3)cc2)c1 [compound 485] |  |  | Test C disease control rating [1, 4]: 99%; Test A disease control rating [2, 4]: 100% |
| C[Si](C)(C)CCNC(=O)c1coc(Cc2ccc(-c3noc(C(F)(F)F)n3)cc2)n1 [compound 206] | 68 | 98 |  |
| CCOC(=O)c1cn(Cc2ccc(-c3noc(C(F)(F)F)n3)cc2)c(=O)cn1 [compound 419] |  |  | Test C disease control rating [1, 4]: 99%; Test A disease control rating [2, 4]: 96% |

| SMILES | Test C disease control rating ([1]; test suspension 10 ppm) [%] | Test A disease control rating [2, 3] [%] | also measured |
| --- | --- | --- | --- |
| CCCOC(=O)c1cnn(C(C)c2ccc(-c3noc(C(F)(F)F)n3)s2)c1 (centres unmarked) [compound 248] | 100 | 100 |  |
| CCOC(=O)c1cc(C)nn1Cc1ccc(-c2noc(C(F)(F)F)n2)cc1 [compound 109] |  |  | Test C disease control rating ([1]; test suspension 50 ppm): 77%; Test A disease control rating ([2]; test suspension 50 ppm): 100% |
| O=C(O)c1cnn(CCCc2ccc(-c3noc(C(F)(F)F)n3)cc2)c1 [compound 363] |  |  | Test C disease control rating ([1]; test suspension 50 ppm): 100%; Test A disease control rating ([2]; test suspension 50 ppm): 100% |
| CCOC(=O)c1cncn(Cc2ccc(-c3noc(C(F)(F)F)n3)cc2)c1=O [compound 418] |  |  | Test C disease control rating [1, 4]: 99%; Test A disease control rating [2, 4]: 100% |
| CC(C)(C)NC(=O)c1cnn(Cc2ccc(-c3noc(C(F)(F)F)n3)cc2)c1 [compound 78] | 100 | 100 |  |
| Cc1cc(C(=O)N(C)C)nn1Cc1ccc(-c2noc(C(F)(F)F)n2)cc1 [compound 182] | 100 | 100 |  |
| CC(C)(C)ONC(=O)c1cnn(Cc2ccc(-c3noc(C(F)(F)F)n3)cc2)c1 [compound 273] | 100 | 100 |  |
| CN(C)C(=O)c1nn(Cc2ccc(-c3noc(C(F)(F)F)n3)cc2)c2ccccc12 [compound 148] | 96 | 100 |  |
| CCOC(=O)c1nn(Cc2ccc(-c3noc(C(F)(F)F)n3)cc2)c(C(=O)OCC)c1C(=O)OCC [compound 174] | 91 | 85 |  |
| C=C(C#N)COC(=O)c1cnn(Cc2ccc(-c3noc(C(F)(F)F)n3)cc2)c1 [compound 486] |  |  | Test C disease control rating [1, 4]: 89%; Test A disease control rating [2, 4]: 100% |
| COc1ccc2c(cnn2Cc2ccc(-c3noc(C(F)(F)F)n3)s2)c1 [compound 195] | 98 | 100 |  |
| O=C(OCCN1CCOCC1)c1cnn(Cc2ccc(-c3noc(C(F)(F)F)n3)cc2)c1 [compound 475] |  |  | Test C disease control rating [1, 4]: 91%; Test A disease control rating [2, 4]: 100% |
| CCOC(=O)c1cc(C)n(Cc2ccc(-c3noc(C(F)(F)F)n3)s2)n1 [compound 73] | 86 | 100 |  |
| FC(F)(F)c1nc(-c2ccc(Cn3nccc3S(F)(F)(F)(F)F)cc2)no1 [compound 504] |  |  | Test C disease control rating [1, 4]: 0%; Test A disease control rating [2, 4]: 74% |
| CCCCOC(=O)c1cnn(Cc2ccc(-c3noc(C(F)(F)F)n3)cc2)c1 [compound 410] |  |  | Test C disease control rating [1, 4]: 100%; Test A disease control rating [2, 4]: 100% |
| CCC(C)OC(=O)c1cnn(Cc2ccc(-c3noc(C(F)(F)F)n3)cc2)c1 (centres unmarked) [compound 481] |  |  | Test C disease control rating [1, 4]: 100%; Test A disease control rating [2, 4]: 100% |
| N#Cc1cnn(CCc2ccc(-c3noc(C(F)(F)F)n3)cc2)c1 [compound 435] |  |  | Test C disease control rating [1, 4]: 74%; Test A disease control rating [2, 4]: 100% |
| CC(COC(=O)c1cnn(Cc2ccc(-c3noc(C(F)(F)F)n3)cc2)c1)=NOC1CCCCO1 (centres unmarked) [compound 218] | 98 | 100 |  |
| CCOC(=O)c1cnn(Cc2ccc(-c3noc(C(F)(F)F)n3)cc2F)c1 [compound 304] | 100 | 100 |  |
| O=C(NCC(F)(F)F)c1cnn(Cc2ccc(-c3noc(C(F)(F)F)n3)cc2)c1 [compound 449] |  |  | Test C disease control rating [1, 4]: 100%; Test A disease control rating [2, 4]: 100% |
| CCONC(=O)c1cnn(Cc2ccc(-c3noc(C(F)(F)F)n3)cc2)c1 [compound 380] |  |  | Test C disease control rating [1, 4]: 100%; Test A disease control rating [2, 4]: 100% |
| CS(=O)(=O)Nc1cnn(Cc2ccc(-c3noc(C(F)(F)F)n3)cc2)c1 [compound 442] |  |  | Test C disease control rating [1, 4]: 0%; Test A disease control rating [2, 4]: 44% |
| COCCNC(=O)C1=NOC(Cc2ccc(-c3noc(C(F)(F)F)n3)s2)C1 (centres unmarked) [compound 461] |  |  | Test C disease control rating [1, 5]: 100%; Test A disease control rating [2, 5]: 100% |
| COc1ccc2nn(Cc3ccc(-c4noc(C(F)(F)F)n4)cc3)cc2c1 [compound 131] | 99 | 100 |  |
| CON=C(COC(=O)c1cnn(Cc2ccc(-c3noc(C(F)(F)F)n3)cc2)c1)c1ccccc1 [compound 245] | 86 | 100 |  |
| Cc1cc(C(F)(F)F)n(Cc2ccc(-c3noc(C(F)(F)F)n3)cc2)n1 [compound 127] | 0 | 0 |  |

From patent US20240090503A1, “FUNGICIDAL OXADIAZOLES AND THEIR MIXTURES” (FMC CORPORATION, priority 2020, published 2024)
